From publication PMC5078025, “Necrosis-inducing peptide has the beneficial effect on killing tumor cells through neuropilin (NRP-1) targeting” (Oncotarget, 2016)
Bridge positions count the residues as written; N and C are the ends. Ends that are not written are not given here.

How the values were obtained:
CT26 cells = experiment: XTT cell viability / killing activity in CT26 cells; assay type: cell-based; settings: CT26 cells in vitro, TU:MTDs 0 ~ 20 μM, 30 minutes
Description: Figure 1 Identification of TU17:MTD as a tumor targeting peptide (A) Schematic diagram of the fusion peptides consisting of the tumor-homing motif, linker, and mitochondrial targeting domain (MTD). (B) Tumors were generated over 2 weeks after s.c. injection of CT26 cells into the backs of BALB/c mice. When tumor volumes reached palpable size, the indicated TU:MTDs (100 μl of 1 mM TU:MTDs) or PBS were administrated i.v. twice or three times. […] Arrows indicate the points of peptide injection. P values < 0.02 (control group vs TU17:MTD at day 5, 6, 7, 8, and 9) (C) HCT116, HeLa, A549, MCF-7, PC3, and BJAB cells were treated with TU17:MTD (0 ~ 20 μM) for 30 minutes, and cell viability was monitored using XTT assays. *P < 0.05 (D) Primary splenocytes and macrophages were treated with TU17:MTD (0 ~ 20 μM) for 30 minutes, and cell viability was monitored by XTT assay. *P < 0.05 (E) CT26 cells were treated with R8:MTD, TU17:MTD, TU17-2:MTD or TU17:MTD^4A (0 ~ 40 μM) for 4 hours, and cell viability was monitored by XTT assay. Results in C to E are expressed as means ± SD (triplicates), and are representative of at least two independent experiments. P values are for experimental groups versus controls and were calculated using Dunnett's t-test. *P < 0.05.
Figure 5 Anti-NRP-1 antibody blocks TU17:MTD-induced necrosis (A) CT26 cells (2 × 10^4 cells/cm^2) were treated with TU17:MTD-FAM (500 nM) peptide or TU17^mut:MTD (500 nM) peptide. […] The viability was measured by using the XTT assay. *P < 0.05, **P < 0.01. […] The percentage of FAM-positive cells (%) were determined (n = over 200 cells). *P < 0.05, ***P < 0.001.
Cells were cultured in 96 well plates (2 × 10^5) overnight and treated with TU:MTDs. Cell viabilities were assessed using a XTT-based colorimetric assay kit, according to the manufacturer's instructions. […]
Supplementary FigureS1: Killing activity of TU:MTDs in CT26 cells. CT26 cells were treated with TU:MTDs (0 ~ 20 μM) for 30 minutes, and cell viability was monitored using XTT assays. […]

BALB/c mice = experiment: Toxicity and movement activity after i.v. injection; settings: for Movement Activities: BALB/c (around 20 gm) mice, i.v. single dose 75 μl of 1 mM, within 30 minutes; for toxicity by mouse movements: BALB/c mice, i.v. single dose 75 μl of 1 mM per mouse, movements within 30 minutes, observed up to one week
Description: To design a MTD peptide anti-cancer drug, the MTD peptide was fused to various known tumor-homing motifs through its N-terminal or C-terminal region, and a linker was introduced between these two motifs to impart flexibility and minimize steric hindrance (Figure 1A, Supplementary Table S1). The MTD peptides fused with tumor-homing motifs (hereafter designated TU:MTDs) were synthesized as linear or cyclic entities using L-amino acids (Supplementary Table S1), and were evaluated for their killing activity using CT26 cells in vitro (Supplementary Figure S1). […] Thus, BALB/c mouse movements were also evaluated within 30 minutes of the intravenous injection of a single dose of 75 μl of 1 mM TU:MTDs per mouse. […] We also searched for a TU:MTD with a potent in vivo effect by observing tumor volumes in three BALB/c mice bearing CT26 adenocarcinoma that were injected with 100 μl of 1 mM TU:MTDs per day for 2 or 3 consecutive days (Figure 1B). […] The tumor-homing motif of TU17:MTD has a “RPARPAR” sequence containing the C-end rule (CendR) element that has known to bind to neuropilin-1 (NRP-1), although the “RPARPAR” sequence is located at the N-terminus of the MTD rather than at the C-terminus. […]
1 mM) were i.v. injected into BALB/c (around 20 gm) mice at a single dose. “Slow” means not moving around in the cage.
“Normal” means normally moving around in the cage. “Toxic” means necrosis in tail vein within 2 ~ 3 days after injection.
Abbreviation: NR; no regression, ND; not determined. […]

Row | Sequence | morphological features of necrosis (CT26 cells) | Movement Activities (BALB/c mice) | toxicity by mouse movements (BALB/c mice)
1 | CNGRCVSGCAGRCGGKLLNLISKLF [TU2:MTD] | induced the typical morphological features of necrosis | Normal | no apparent toxicities
2 | KLLNLISKLFCRGDKRLYDC (disulfide 11-20 (inferred)) [TU11:MTD] | induced the typical morphological features of necrosis | Slow | toxic
